The values below come from paper PMC5520195 (Acta Pharmacologica Sinica, 2017).

In series [1] the test system is 4T1.2 mouse breast cancer cells. As to the kind of experiment: MTT cytotoxicity assay. It is filed as cell-based. Conditions: 4T1.2 cells, 72 h.
Series [2] in a line: Plasma pharmacokinetics of DOX after iv administration. It is filed as in vivo. Conditions: DOX in plasma, BALB/c mice, 5 mg DOX/kg.

The structures appear in SMILES notation.

Usually Cmax stands for the maximum level reached in the sampled fluid or tissue. On to `COc1cccc2c1C(=O)c1c(O)c3c(c(O)c1C2=O)C[C@@](O)(C(=O)CO)C[C@@H]3O[C@H]1C[C@H](N)[C@H](O)[C@H](C)O1` [DOX, doxorubicin], for which, in series [1], the “cytotoxicity (MTT)” value was “cytotoxic effect on tumor cells in a concentration-dependent manner”. In series [2], the “AUC0–infinity” value is 2930 ng·h/mL, the CL worked out at 28.8 mL/min/kg and the Cmax came out at 6270 ng/mL.
